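Five compound concentrations were applied to cells in 96-well plates for 48 hours; endpoints were derived by simple linear interpolation of the resulting dose-response curve. GI50: concentration for 50% inhibition of growth.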 Calls of active or inactive are those of the source. Rule as the data show it: active = GI50 up to about 1.1 µM and inactive = higher.
Legend:
Experiment in all cases: DTP human tumour cell line panel, 48 h
UO-31 = test system: UO-31
HL-60 = test system: HL-60
SNB-19 = test system: SNB-19
786-0 = test system: 786-0
SK-MEL-28 = test system: SK-MEL-28
SF-268 = test system: SF-268
RPMI-8226 = test system: RPMI-8226
CCRF-CEM = test system: CCRF-CEM
NCI-H226 = test system: NCI-H226
OVCAR-8 = test system: OVCAR-8
LOX IMVI = test system: LOX IMVI
SR = test system: SR
EKVX = test system: EKVX
HCT-15 = test system: HCT-15
ACHN = test system: ACHN
OVCAR-3 = test system: OVCAR-3
SNB-75 = test system: SNB-75
COLO 205 = test system: COLO 205

| Structure (SMILES) | GI50 (UO-31) | GI50 (HL-60) | GI50 (SNB-19) | GI50 (786-0) | GI50 (SK-MEL-28) | GI50 (SF-268) | GI50 (RPMI-8226) | GI50 (CCRF-CEM) | GI50 (NCI-H226) | GI50 (OVCAR-8) | GI50 (LOX IMVI) | GI50 (SR) | GI50 (EKVX) | GI50 (HCT-15) [µM] | GI50 (ACHN) | GI50 (OVCAR-3) | GI50 (SNB-75) | GI50 (COLO 205) |
| --- | --- | --- | --- | --- | --- | --- | --- | --- | --- | --- | --- | --- | --- | --- | --- | --- | --- | --- |
| COc1ccc(CNc2cnc3cc(N)ccc3n2)cc1 | 26.4 µM (inactive) | 77.1 µM (inactive) | 69 µM (inactive) | > 100 µM (inactive) | > 100 µM (inactive) | > 100 µM (inactive) | 42.8 µM (inactive) | 30 µM (inactive) | 80.7 µM (inactive) | > 100 µM (inactive) | > 100 µM (inactive) | 55.3 µM (inactive) | > 100 µM (inactive) | > 100 | > 100 µM (inactive) | > 100 µM (inactive) | 52.6 µM (inactive) | > 100 µM (inactive) |
| CCN/C(=N\Nc1ccc([N+](=O)[O-])cc1)P(=O)(OC(C)C)OC(C)C | > 100 µM (inactive) | > 100 µM (inactive) | > 100 µM (inactive) | > 100 µM (inactive) | 99.8 µM (inactive) | > 100 µM (inactive) | > 100 µM (inactive) | > 100 µM (inactive) | 25.8 µM (inactive) | > 100 µM (inactive) | > 100 µM (inactive) | > 100 µM (inactive) | > 100 µM (inactive) | > 100 | > 100 µM (inactive) | > 100 µM (inactive) | 49.9 µM (inactive) | > 100 µM (inactive) |
| CC1(C)S[C@H](c2ccccc2C(=O)O)N[C@@H]1CC(=O)O | – | > 100 µM (inactive) | > 100 µM (inactive) | > 100 µM (inactive) | > 100 µM (inactive) | > 100 µM (inactive) | > 100 µM (inactive) | > 100 µM (inactive) | > 100 µM (inactive) | > 100 µM (inactive) | > 100 µM (inactive) | > 100 µM (inactive) | > 100 µM (inactive) | > 100 | > 100 µM (inactive) | – | > 100 µM (inactive) | > 100 µM (inactive) |
| c1ccc(C2=NN3CN(N2)c2ccccc2OCCCOc2ccccc23)cc1 | 77.4 µM (inactive) | 48.9 µM (inactive) | > 100 µM (inactive) | > 100 µM (inactive) | > 100 µM (inactive) | > 100 µM (inactive) | 19.1 µM (inactive) | > 100 µM (inactive) | > 100 µM (inactive) | > 100 µM (inactive) | > 100 µM (inactive) | 92.7 µM (inactive) | > 100 µM (inactive) | > 100 | > 100 µM (inactive) | > 100 µM (inactive) | 88.5 µM (inactive) | > 100 µM (inactive) |
| CCC(=O)OC[n+]1ccc2c(C)c3[nH]c4ccccc4c3c(C)c2c1 | – | 2.45 µM (inactive) | 1.6 µM (inactive) | 0.767 µM (active) | 1.38 µM (inactive) | 0.552 µM (active) | 0.284 µM (active) | 0.444 µM (active) | 0.735 µM (active) | 0.454 µM (active) | 0.337 µM (active) | 0.0423 µM (active) | – | – | 0.289 µM (active) | 1.33 µM (inactive) | 1.29 µM (inactive) | 0.323 µM (active) |
| N#CC1C(C#N)C2(c3ccccc3)C(c3ccccc3)=NN(c3ccccc3)CC12 (stereo unspecified) | > 100 µM (inactive) | > 100 µM (inactive) | > 100 µM (inactive) | > 100 µM (inactive) | > 100 µM (inactive) | – | > 100 µM (inactive) | > 100 µM (inactive) | > 100 µM (inactive) | > 100 µM (inactive) | > 100 µM (inactive) | > 100 µM (inactive) | > 100 µM (inactive) | > 100 | > 100 µM (inactive) | > 100 µM (inactive) | 36.4 µM (inactive) | – |

— ChEMBL document CHEMBL1201862, “PubChem BioAssay data set” (2004)
